The test concerns the target T1, rat mGluR5 (Rattus norvegicus, UniProt P31424).
T1 construct: expressed in transfected cells
Briefly: mGluR5 calcium mobilization assay (FDSS, Fluo-4) in HEK 293A cells stably expressing rat mGluR5. As to conditions: HEK cells transfected with rat mGluR5; antagonism of glutamate EC80 response; ± = standard error of at least three experiments. Format: cell-based. On the procedure:
Human embryonic kidney (HEK) cells transfected with rat or human mGluR5 were plated in clear bottom assay plates for assay in a Functional Drug Screening System (FDSS). The cells were loaded with a Ca^2+-sensitive fluorescent dye (e.g., Fluo-4), and the plates were washed and placed in the FDSS instrument. Test compound was applied to cells 3 seconds after baseline readings were taken. Cells were incubated with the test compounds for 140 seconds and then stimulated with an EC20 concentration of an mGluR5 agonist (e.g., glutamate, 3,5-dihydroxyphenylglycine, or quisqualate); 60-80 seconds later an EC80 concentration of agonist was added and readings taken for an additional 40 seconds. Data were collected at 1 Hz. […] Concentration response curves were generated using a four parameter logistical equation.
The above described assay was operated in two modes. In the first mode (utilizing a triple add protocol), a range of concentrations of the present compounds were added to cells, followed by two single fixed concentrations of agonist (EC20 followed by EC80). If a compound acted as a potentiator, an EC50 value for potentiation of the EC20 response and a maximum extent of potentiation by the compound at this concentration of agonist was determined by non-linear curve fitting. If a compound acted as an antagonist, an IC50 value for antagonism of the EC80 response and a maximum extent of antagonism by the compound at this concentration of agonist was determined by non-linear curve fitting. In the second mode (utilizing a double add protocol), several fixed concentrations of the present compounds were added to various wells on a plate, followed by a range of concentrations of agonist for each concentration of present compound; the EC50 values for the agonist at each concentration of compound were determined by nonlinear curve fitting. A decrease in the EC50 value of the agonist with increasing concentrations of the present compounds (a leftward shift of the agonist concentration-response curve) is an indication of the degree of mGluR5 positive allosteric modulation at a given concentration of the present compound. An increase in the EC50 value of the agonist with increasing concentrations of the present compounds (a rightward shift of the agonist concentration response curve) is an indication of the degree of mGluR5 antagonism at a given concentration of the present compound. The second mode also indicates whether the present compounds also affect the maximum response to mGluR5 to agonists.
The mGluR5 activity was determined using the calcium mobilization assays in human embryonic kidney cells as described herein below, wherein the human embryonic kidney cells were transfected with rat mGluR5. The mGluR5 activity data for some compounds are shown as the average of at least three experiments with the standard error in these cases. If no error is indicated for the mGluR5 activity, the values given represent the results from a single experiment or the average of two experiments. The compounds in Table 1 were synthesized with methods identical or analogous to those shown herein. The requisite starting materials were commercially available, described in the literature, or readily synthesized by one skilled in the art of organic synthesis.
GluMax is the amplitude of response in the presence of 30 μM test compound as a percentage of maximal response (100 μM glutamate). Partial antagonists display concentration-response curves (CRCs) that plateau above 10%.
The preparation of rat mGluR5 stable cell-lines is as previously described (e.g. see Romano et al. J Biol. Chem. 1996 Nov. 8; 271(45):28612-6).
T1 sequence (P31424 21-1171 isoform P31424-2 limits assumed): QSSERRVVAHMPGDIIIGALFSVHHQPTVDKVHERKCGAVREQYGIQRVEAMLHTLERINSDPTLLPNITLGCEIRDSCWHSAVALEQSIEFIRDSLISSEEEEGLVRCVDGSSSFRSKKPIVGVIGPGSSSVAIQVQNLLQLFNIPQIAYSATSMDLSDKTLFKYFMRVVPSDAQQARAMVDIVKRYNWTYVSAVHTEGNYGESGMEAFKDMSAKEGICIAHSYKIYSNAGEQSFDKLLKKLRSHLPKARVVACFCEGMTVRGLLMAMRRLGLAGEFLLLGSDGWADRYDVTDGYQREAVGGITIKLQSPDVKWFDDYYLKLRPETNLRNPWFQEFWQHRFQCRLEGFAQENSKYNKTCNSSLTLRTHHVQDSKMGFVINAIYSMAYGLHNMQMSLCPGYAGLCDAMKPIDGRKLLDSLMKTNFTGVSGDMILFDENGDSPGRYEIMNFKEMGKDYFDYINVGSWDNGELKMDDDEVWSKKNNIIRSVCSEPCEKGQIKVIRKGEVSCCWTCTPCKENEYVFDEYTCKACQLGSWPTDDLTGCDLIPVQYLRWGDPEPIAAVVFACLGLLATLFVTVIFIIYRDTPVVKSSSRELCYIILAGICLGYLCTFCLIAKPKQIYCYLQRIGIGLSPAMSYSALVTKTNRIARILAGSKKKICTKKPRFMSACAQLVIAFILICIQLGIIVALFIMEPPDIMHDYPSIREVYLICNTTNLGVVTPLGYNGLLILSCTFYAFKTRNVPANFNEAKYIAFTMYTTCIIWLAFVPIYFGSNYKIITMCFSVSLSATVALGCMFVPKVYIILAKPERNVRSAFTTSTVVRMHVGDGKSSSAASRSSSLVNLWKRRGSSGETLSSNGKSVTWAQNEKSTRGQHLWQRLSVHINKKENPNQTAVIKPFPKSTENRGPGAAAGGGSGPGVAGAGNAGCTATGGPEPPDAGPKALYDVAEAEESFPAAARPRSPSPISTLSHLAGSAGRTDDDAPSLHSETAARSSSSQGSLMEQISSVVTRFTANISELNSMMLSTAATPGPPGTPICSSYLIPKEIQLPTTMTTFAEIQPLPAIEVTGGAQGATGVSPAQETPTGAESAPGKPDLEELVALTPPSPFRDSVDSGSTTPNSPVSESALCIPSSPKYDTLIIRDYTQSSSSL
Regarding `COc1cncc(Oc2cc(C(=O)Nc3ccc(C)cn3)c3ncnn3c2)c1`, the IC50 (in general, the midpoint of a concentration-inhibition curve) was found to be 218 nM.

For `Cc1cncc(Oc2cc(C(=O)Nc3cccc(C)n3)c3ncnn3c2)c1`, the IC50 was found to be 160 nM. To `Cc1ncc(Oc2cc(C(=O)Nc3cccc(F)n3)c3nccn3c2)cn1` belongs 5780 nM; to `O=C(Nc1cccc(F)n1)c1cc(Oc2cncc(Cl)c2)cn2ncnc12`, 62 nM; to `O=C(Nc1ccccn1)c1cc(Oc2cncc(Cl)c2)cn2cnnc12`, 176 nM. To `COc1ccc(NC(=O)c2cc(Oc3cncc(OC)c3)cn3ccnc23)nc1` belongs 85 nM. To `Cc1ccc(NC(=O)c2cc(Oc3cccnc3)cn3ncnc23)nc1` belongs 50 nM; to `CCc1cccc(NC(=O)c2cc(Oc3cncnc3)cn3ncnc23)n1`, 306 nM. `O=C(Nc1ccc(F)cn1)c1cc(Oc2cncc(Cl)c2)cn2ncnc12`: the IC50 was 39 nM.

Turning to `O=C(Nc1cccc(F)n1)c1cc(Oc2cncnc2)cn2ncnc12`, the half-inhibitory concentration (IC50) was 117 nM. As for `Cc1ncc(Oc2cc(C(=O)Nc3ccc(F)c(C)n3)c3nncn3c2)cn1`, the IC50 is more than 10000 nM. The figure for `Cc1cccc(NC(=O)c2cc(Oc3cnc(C)nc3)cn3ccnc23)n1` is 3620 nM. To `Cc1ncc(Oc2cc(C(=O)Nc3ccc(F)cn3)c3nncn3c2)cn1` belongs more than 10000 nM; to `Cc1csc(NC(=O)c2cc(Oc3cccnc3)cn3ncnc23)n1`, 43 nM; to `Cc1csc(NC(=O)c2cc(Oc3cc(F)cnc3F)cn3ncnc23)n1`, 110 nM. As to `Cc1cncc(Oc2cc(C(=O)Nc3ccccn3)c3ncnn3c2)c1`, the half-maximal inhibitory concentration (IC50) was 57 nM. The figure for `COc1ccc(NC(=O)c2cc(Oc3cncc(OC)c3)cn3ncnc23)nc1` is 331 nM.

For the compound `[2H]c1nc(NC(=O)c2cc(Oc3cncc(F)c3)cn3ccnc23)c([2H])c([2H])c1[2H]`, the IC50 stood at 15 nM. The figure for `COc1cncc(Oc2cc(C(=O)Nc3cccc(OC)n3)c3ncnn3c2)c1` [drawing 305] is 334 nM. The figure for `CCc1cccc(NC(=O)c2cc(Oc3cncc(Cl)c3)cn3cnnc23)n1` is 1340 nM; for `COc1cncc(Oc2cc(C(=O)Nc3cccc(C)n3)c3nncn3c2)c1` it is 2150 nM; for `COc1cncc(Oc2cc(C(=O)Nc3ccc(C)cn3)c3nncn3c2)c1` it is 3600 nM. To `Cc1csc(NC(=O)c2cc(Oc3cnc(F)c(F)c3)cn3ncnc23)n1` belongs 119 nM. Turning to `O=C(Nc1cc(F)ccn1)c1cc(Oc2cncc(F)c2)cn2ncnc12`, the IC50 turned out to be 723 nM.

Take `Cc1cccc(NC(=O)c2cc(Oc3cncnc3)cn3ncnc23)n1`: the IC50 was found to be 312 nM. `Cc1ccc(NC(=O)c2cc(Oc3cncc(F)c3)cn3c(C)nnc23)nc1`: the half-maximal inhibitory concentration (IC50) is 1310 nM.

`[2H]c1nc(NC(=O)c2cc(Oc3cncc(Cl)c3)cn3cnnc23)c([2H])c([2H])c1[2H]`: the IC50 worked out at 217 nM. In the case of `COc1ccc(NC(=O)c2cc(Oc3cncc(F)c3)cn3ccnc23)nc1`, the 50% inhibitory concentration (IC50) is 39 nM. For the compound `Cc1csc(NC(=O)c2cc(Oc3cnc(C)nc3)cn3ccnc23)n1`, the 50% inhibitory concentration (IC50) was 1090 nM. The figure for `COc1cccc(NC(=O)c2cc(Oc3cncc(C)c3)cn3ncnc23)n1` is 260 nM; for `Cc1nc2c(C(=O)Nc3ccccn3)cc(Oc3cncc(F)c3)cn2n1` it is 97 nM; for `Cc1cccc(NC(=O)c2cc(Oc3cncc(F)c3)cn3nc(C)nc23)n1` it is 199 nM. Take `Cc1cncc(Oc2cc(C(=O)Nc3ccc(F)cn3)c3ncnn3c2)c1`: the IC50 turned out to be 94 nM.

For `CCc1cccc(NC(=O)c2cc(Oc3cncc(F)c3)cn3ncnc23)n1`, the IC50 amounted to 101 nM. `CCc1cccc(NC(=O)c2cc(Oc3cncc(F)c3)cn3c(C)nnc23)n1`: the 50% inhibitory concentration (IC50) turned out to be 1180 nM. To `CCc1cccc(NC(=O)c2cc(Oc3cncc(Cl)c3)cn3ncnc23)n1` belongs 264 nM.

Take `O=C(Nc1ccc(F)cn1)c1cc(Oc2cc(F)cnc2F)cn2ncnc12`: the IC50 amounted to 138 nM. As for `[2H]c1nc(NC(=O)c2cc(Oc3cncc(OC)c3)cn3cnnc23)c([2H])c([2H])c1[2H]`, the IC50 was 1230 nM. The figure for `COc1cccc(NC(=O)c2cc(Oc3cncc(Cl)c3)cn3ncnc23)n1` is 236 nM; for `O=C(Nc1cccc(F)n1)c1cc(Oc2cncc(F)c2)cn2ncnc12` it is 31 nM; for `COc1ccc(NC(=O)c2cc(Oc3cncc(OC)c3)cn3cnnc23)nc1` it is 3970 nM. The figure for `N#Cc1cncc(Oc2cc(C(=O)Nc3ccccn3)c3nncn3c2)c1` is 674 nM; for `O=C(Nc1nc(C(F)F)cs1)c1cc(Oc2cncnc2)cn2ncnc12` it is 214 nM; for `O=C(Nc1ccc(F)cn1)c1cc(Oc2cncc(OC(F)F)c2)cn2ncnc12` it is 127 nM. To `Cc1cccc(NC(=O)c2cc(Oc3cncc(F)c3)cn3cnnc23)n1` belongs 73 nM.

In the case of `Cc1nnc2c(C(=O)Nc3ccc(F)cn3)cc(Oc3cncc(F)c3)cn12`, the half-maximal inhibitory concentration (IC50) was determined as 360 nM. The figure for `COc1cncc(Oc2cc(C(=O)Nc3ccccn3)c3nncn3c2)c1` is 897 nM; for `COc1ccc(NC(=O)c2cc(Oc3cncc(Cl)c3)cn3ncnc23)nc1` it is 92 nM. To `Cc1ccc(NC(=O)c2cc(Oc3cncc(F)c3)cn3cnnc23)nc1` belongs 77 nM; to `COc1ccc(NC(=O)c2cc(Oc3cccnc3)cn3ncnc23)nc1`, 142 nM; to `Cc1ccc(NC(=O)c2cc(Oc3cncc(Cl)c3)cn3cnnc23)nc1`, 1050 nM.

In the case of `Cc1csc(NC(=O)c2cc(Oc3cncc(C#N)c3)cn3ccnc23)n1`, the half-inhibitory concentration (IC50) turned out to be 127 nM. To `COc1cncc(Oc2cc(C(=O)Nc3cccc(C)n3)c3ncnn3c2)c1` belongs 175 nM; to `O=C(Nc1cccc(F)n1)c1cc(Oc2cncc(F)c2)cn2ccnc12`, 42 nM; to `O=C(Nc1ccccn1)c1cc(Oc2cncc(O)c2)cn2ncnc12`, 44 nM. To `O=C(Nc1ccc(F)cn1)c1cc(Oc2cncc(F)c2F)cn2ncnc12` belongs 41 ± 2 nM. To `CCc1cccc(NC(=O)c2cc(Oc3cncc(F)c3)cn3nc(C)nc23)n1` belongs 623 nM; to `[2H]c1nc(NC(=O)c2cc(Oc3cnc(C)nc3)cn3cnnc23)c([2H])c([2H])c1[2H]`, 7970 nM; to `Cc1nc(NC(=O)c2cc(Oc3cccnc3)cn3ncnc23)ccc1F`, 119 nM. As to `Cc1cccc(NC(=O)c2cc(Oc3cccnc3)cn3ncnc23)n1`, the concentration for half-maximal inhibition (IC50) came to 41 nM.

For `Cc1cccc(NC(=O)c2cc(Oc3cncc(Cl)c3)cn3cnnc23)n1`, the concentration for half-maximal inhibition (IC50) was determined as 695 nM. The figure for `Cc1ncc(Oc2cc(C(=O)Nc3cccc(F)n3)c3nncn3c2)cn1` is more than 10000 nM. To `Cc1cccc(NC(=O)c2cc(Oc3cncc(F)c3)cn3ncnc23)n1` belongs 58 nM; to `COc1ccc(NC(=O)c2cc(Oc3cnc(C)nc3)cn3cnnc23)nc1`, more than 10000 nM; to `N#Cc1cncc(Oc2cc(C(=O)Nc3ccccn3)c3ncnn3c2)c1`, 105 nM. The figure for `N#Cc1cncc(Oc2cc(C(=O)Nc3ccc(F)cn3)c3nncn3c2)c1` is 1430 nM; for `Cc1ccc(NC(=O)c2cc(Oc3cncc(F)c3)cn3ncnc23)nc1` it is 53 nM. As to `Cc1nc(NC(=O)c2cc(Oc3cncnc3)cn3ncnc23)sc1F`, the IC50 stood at 150 nM. The figure for `O=C(Nc1nc(CF)cs1)c1cc(Oc2cncnc2)cn2ncnc12` is 244 nM; for `COc1cncc(Oc2cc(C(=O)Nc3nc(C)cs3)c3ncnn3c2)c1` it is 139 nM. To `Cc1nc(NC(=O)c2cc(Oc3cncc(F)c3)cn3cnnc23)ccc1F` belongs 164 nM. The figure for `O=C(Nc1ccccn1)c1cc(Oc2cnc(F)c(F)c2)cn2ncnc12` is 52 nM; for `O=C(Nc1ccccn1)c1cc(Oc2cncc(Cl)c2)cn2ncnc12` it is 32 nM. As to `CCc1cccc(NC(=O)c2cc(Oc3cccnc3)cn3ncnc23)n1`, the IC50 is 114 nM.

For `CCc1cccc(NC(=O)c2cc(Oc3cncnc3)cn3cnnc23)n1`, the IC50 was determined as 2060 nM.

These data come from patent US9844542B2, “Substituted imidazopyridine and triazolopyridine compounds as negative allosteric modulators of mGluR5” (Vanderbilt University, priority 2013, dated 2017).
